Results taken from publication PMC10043390, “Novel 2-substituted-5-(4-chloro-2-phenoxy)phenyl-1,3,4-oxadiazole derivatives, ligands of GABAA/benzodiazepine receptor complex: Design, synthesis, radioligand binding assay, and pharmacological evaluation” (EXCLI Journal, 2023).
Several values for one entry are separate records, joined by “and”; a condition that tells them apart may be missing. Identical values can stand only once. Like-named read-outs stand apart in the source and are kept apart here.

Tests used:
[1] = molecular target: benzodiazepine receptor of rat brains; assay: Radioligand receptor binding assay ([3H]-flumazenil competitive binding); conditions: for Ki: [3H]-flumazenil competitive binding; for Specific binding of [3H]flumazenil: mean ± SEM, n=3; for IC50: reduction of specific binding of [3H]-flumazenil by 50 %, triplicates, 30 °C, 35 min
Description: All of the binding assays were performed in triplicates in a total volume of 500 µL at 30 °C for 35 min (Ahmadi et al., 2013[1]).
(§1) Kd and Bmax in radioligand binding assay were calculated by non-linear regression analysis of the saturation and competitive curve data (Program Prism, Graph Pad, San Diego, CA). The IC50s of the novel compounds in binding studies were determined using […]. […] In PTZ and MES tests, the data were presented as a mean with 95% confidence intervals. In the rest of the pharmacological evaluations, one-way ANOVA with Tukey's HSD post-hoc test was used. All the data were presented as mean ± SEM and P<0.05 was considered statistically significant.

male NMRI albino mice [2] = conditions: for latency of entrance to the dark compartment: testing day, raw data of single animals
Description: For the mice to get adapted to the lab environment, we transferred them to the lab 60 minutes before the tests started. Mice were randomly selected for all the experimental groups and each subject was tested only once for the pharmacological evaluations.
Distilled water was used as a solvent (vehicle) of PTZ and pentobarbital. Both, PTZ and pentobarbital were injected i.p. 5 ml/kg.
The passive avoidance cage (Malek Teb Co., Tehran) consists of two different compartments separated by a guillotine door. One of the compartments was black and dark while the other one was white and lighted. For the training trial, each mouse was placed in the white and light compartment and facing away from the guillotine door for 30 seconds. Next, the guillotine door was opened and the mouse was able to freely enter the black and dark compartment. When the mouse entered the black and dark compartment with four paws, it received an electric unpleasant stimulus (0.5 mA, 2 seconds) through the grid floor. On the testing day (after 24 hours), we placed the mouse in the lighted compartment and there was no electrical stimulus. We reported the latency to enter the black and dark compartment while the guillotine door was open.

male NMRI albino mice [3] = assay: PTZ-induced lethal convulsion test; type: in vivo
Description: (§2) To assess the anticonvulsant activity of the novel compound 6a, we used PTZ-induced convulsion and MES tests (Guerrini et al., 2008[10]; Lankau et al., 2007[13]). In both models, the ability of the novel compound to protect mice against induced seizures was evaluated. Animals were closely observed for 30 minutes after injection of the lethal dose of PTZ (100 mg/kg) and the number of dead mice after convulsion was reported. In the MES test, each subject was observed closely and the incidence of hind limb tonic extension (HLTE) in the subjects after application of MES (60 Hz, 37.2 mA, and 0.25 s) was reported.
as §1

male NMRI albino mice [4] = assay: Elevated plus-maze test; type: in vivo; conditions: for % duration in close arms / % duration in open arms: raw data of single animals
Description: The elevated plus-maze device was made up of Plexiglas, and it contained two open arms (30×5×0.5 cm) and two closed arms (30×5×35 cm) with an open roof. They were arranged so that the open arms were opposite to […]. The entire maze was elevated at a height of 1 meter. The mice were individually placed in the central square of the maze (5×5 cm) where all four arms were connected together after 30 minutes of intraperitoneal (i.p) administration of the test compounds. The time spent in the open and closed arms was recorded.

male NMRI albino mice [5] = assay: Pentobarbital-induced sleep test; type: in vivo; conditions: for Sleeping time: pentobarbital 40 mg/kg i.p., raw data of single animals
Source text: The duration of the loss of the righting reflex was considered as the sleeping time. […] For prevention of hypothermia during the experiment, animals were placed on an electric blanket (Khoramjouy et al., 2021[11]).

male NMRI albino mice [6] = assay: Maximal electroshock (MES) test; type: in vivo
Description: as §2, §1

[7] = doses of 5 and 10 mg/kg, over 10 minutes

In the case of `O=C(Nc1ccccc1)c1nnc(-c2ccc(Cl)cc2Oc2ccccc2)o1` [6a, 5-(4-chloro-2-phenoxyphenyl)-N-phenyl-1,3,4-oxadiazole-2-carboxamide], the Ki [1] is reported as 0.44 nM, the “Specific binding of [3H]flumazenil” value ([1]; log[L] -7.0) is reported as 0.3167±0.0378 cpm and the “Specific binding of [3H]flumazenil” value ([1]; log[L] -8.0) is reported as 0.4000±0.0412 cpm. For the same molecule, the “Specific binding of [3H]flumazenil” value ([1]; log[L] -8.5) was 0.4200±0.0102 cpm, the “Specific binding of [3H]flumazenil” value ([1]; log[L] -9.0) was 0.4667±0.0090 cpm and the “Specific binding of [3H]flumazenil” value ([1]; log[L] -9.5) was 0.5100±0.0156 cpm. The “Specific binding of [3H]flumazenil” value ([1]; log[L] -10.0) was 0.5800±0.0156 cpm, the “Specific binding of [3H]flumazenil” value ([1]; log[L] -11.0) was 0.6267±0.0034 cpm and the IC50 [1] was 0.73 ± 0.17 nM. The “latency of entrance to the dark compartment” value (shortened to “latency of entrance”) (male NMRI albino mice [2]; 1.25 mg/kg i.p.) was 320 second and 380 second and 393 second and 467 second and 480 second (2×) and 420 second (2×), the “latency of entrance” value (male NMRI albino mice [2]; 5 mg/kg i.p.) was 480 second (2×) and 440 second and 344 second and 343 second and 380 second and 407 second and 251 second and the “latency of entrance” value (male NMRI albino mice [2]; 10 mg/kg i.p.) was 320 s and 460 s and 407 s and 230 s and 400 s and 420 s and 480 s and 326 s. For the same molecule, the “effect on latency to enter the dark compartment” value (male NMRI albino mice [2]; doses of 1.25, 2.5, 5, and 10 mg/kg) was “did not show any significant effect”, the ED50 (male NMRI albino mice [3]; Mus musculus, i.p. 30 min before PTZ 100 mg/kg, mean with 95% confidence intervals) was 72 mg/kg and the “anticonvulsant activity in presence of flumazenil” value (male NMRI albino mice [3]; PTZ test, flumazenil 10 mg/kg) was “can antagonize the anticonvulsant activity”. For the same molecule, the “% duration in close arms” value (male NMRI albino mice [4]; 1.25 mg/kg i.p.) was 65.00% (2×) and 67.00% and 56.00% and 60.00% and 53.00% and 64.00% and 59.00%, the “% duration in open arms” value (male NMRI albino mice [4]; 1.25 mg/kg i.p.) was 35.00% (2×) and 33.00% and 44.00% and 40.00% and 47.00% and 36.21% and 41.00% and the “% duration in close arms” value (male NMRI albino mice [4]; 5 mg/kg i.p.) was 48.50% (2×) and 44.54% and 44.40% and 43.48% and 38.16% and 47.65% and 51.65%. For the same molecule, the “% duration in open arms” value (male NMRI albino mice [4]; 5 mg/kg i.p.) was 51.49% (2×) and 55.45% and 55.59% and 56.51% and 61.83% and 52.34% and 48.34%, the “% duration in close arms” value (male NMRI albino mice [4]; 10 mg/kg i.p.) was 42.44% and 46.28% and 47.65% and 43.17% and 37.57% and 45.37% and 41.04% and 26.78% and the “% duration in open arms” value (male NMRI albino mice [4]; 10 mg/kg i.p.) was 57.55% and 53.71% and 52.34% and 56.82% and 62.42% and 54.62% and 58.96% and 73.22%. The “effect on close arm time (CAT)” value (male NMRI albino mice [4]; [7]) was “decrease the close arm time”, the “effect on open arm time (OAT)” value (male NMRI albino mice [4]; [7]) was “increase the open arm time” and the Sleeping time (male NMRI albino mice [5]; 1.25 mg/kg i.p.) was 26 min and 38 min and 39 min and 46 min and 28 min and 20 min and 24 min and 32 min. The Sleeping time (male NMRI albino mice [5]; 5 mg/kg i.p.) was 48 minute and 44 minute and 50 minute (2×) and 43 minute and 57 minute and 40 minute and 56 minute, the Sleeping time (male NMRI albino mice [5]; 10 mg/kg + Flumazenil (10 mg/kg)) was 43 minute (2×) and 34 minute (2×) and 27 minute (2×) and 32 minute and 29 minute and the Sleeping time (male NMRI albino mice [5]; 10 mg/kg i.p.) was 53 minute and 64 minute and 47 minute (2×) and 43 minute and 40 minute and 55 minute and 49 minute. For the same molecule, the “effect on sleeping time” value (male NMRI albino mice [5]; dose of 10 and 5 mg/kg, P<0.001) was “increased the sleeping time”, the “hypnotic effect in presence of flumazenil” value (male NMRI albino mice [5]; with flumazenil 10 mg/kg, P<0.001) was “prevented by flumazenil” and the “anticonvulsant activity in presence of flumazenil” value (male NMRI albino mice [6]; MES test, flumazenil 10 mg/kg) was “can antagonize the anticonvulsant activity”. It also gave an ED50 (male NMRI albino mice [6]; Mus musculus, ip, i.p. 30 min before MES (60 Hz, 37.2 mA, 0.25 s), HLTE, mean with 95% confidence intervals) of 27.8 mg/kg.
For `O=C(Nc1ccccn1)c1nnc(-c2ccc(Cl)cc2Oc2ccccc2)o1` [6b, 5-(4-chloro-2-phenoxyphenyl)-N-(pyridin-2-yl)-1,3,4-oxadiazole-2-carboxamide], the Ki [1] was 2.35 nM, the “Specific binding of [3H]flumazenil” value ([1]; log[L] -7.0) was 0.2333±0.0148 cpm and the “Specific binding of [3H]flumazenil” value ([1]; log[L] -8.0) was 0.3733±0.0223 cpm. The “Specific binding of [3H]flumazenil” value ([1]; log[L] -8.5) was 0.4267±0.0090 cpm, the “Specific binding of [3H]flumazenil” value ([1]; log[L] -9.0) was 0.5233±0.0180 cpm and the “Specific binding of [3H]flumazenil” value ([1]; log[L] -9.5) was 0.5467±0.0068 cpm. The “Specific binding of [3H]flumazenil” value ([1]; log[L] -10.0) was 0.5900±0.0118 cpm, the “Specific binding of [3H]flumazenil” value ([1]; log[L] -11.0) was 0.6433±0.0122 cpm and the IC50 [1] was 3.84 ± 0.1 nM. For the same molecule, the melting point was 198 to 200 °C.
For `Cc1cccc(NC(=O)c2nnc(-c3ccc(Cl)cc3Oc3ccccc3)o2)n1` [6c, 5-(4-chloro-2-phenoxyphenyl)-N-(6-methylpyridin-2-yl)-1,3,4-oxadiazole-2-carboxamide], the Ki [1] was 0.76 nM, the “Specific binding of [3H]flumazenil” value ([1]; log[L] -7.0) was 0.3000±0.0059 cpm and the “Specific binding of [3H]flumazenil” value ([1]; log[L] -8.0) was 0.3100±0.0102 cpm. For the same molecule, the “Specific binding of [3H]flumazenil” value ([1]; log[L] -8.5) was 0.3767±0.0090 cpm, the “Specific binding of [3H]flumazenil” value ([1]; log[L] -9.0) was 0.4467±0.0207 cpm and the “Specific binding of [3H]flumazenil” value ([1]; log[L] -9.5) was 0.5367±0.0122 cpm. For the same molecule, the “Specific binding of [3H]flumazenil” value ([1]; log[L] -10.0) was 0.5700±0.0156 cpm, the “Specific binding of [3H]flumazenil” value ([1]; log[L] -11.0) was 0.5733±0.0207 cpm and the IC50 [1] was 1.25 ± 0.09 nM. The melting point was 183.2 to 184.3 °C.
In the case of `Cc1ccnc(NC(=O)c2nnc(-c3ccc(Cl)cc3Oc3ccccc3)o2)c1` [6d, 5-(4-chloro-2-phenoxyphenyl)-N-(4-methylpyridin-2-yl)-1,3,4-oxadiazole-2-carboxamide], the Ki [1] is reported as 0.88 nM, the “Specific binding of [3H]flumazenil” value ([1]; log[L] -7.0) is reported as 0.3000±0.0059 cpm and the “Specific binding of [3H]flumazenil” value ([1]; log[L] -8.0) is reported as 0.3100±0.0102 cpm. The “Specific binding of [3H]flumazenil” value ([1]; log[L] -8.5) was 0.3767±0.0090 cpm, the “Specific binding of [3H]flumazenil” value ([1]; log[L] -9.0) was 0.4467±0.0207 cpm and the “Specific binding of [3H]flumazenil” value ([1]; log[L] -9.5) was 0.5367±0.0122 cpm. For the same molecule, the “Specific binding of [3H]flumazenil” value ([1]; log[L] -10.0) was 0.5700±0.0156 cpm, the “Specific binding of [3H]flumazenil” value ([1]; log[L] -11.0) was 0.5733±0.0207 cpm and the IC50 [1] was 1.44 ± 0.09 nM. For the same molecule, the melting point was 188.2 to 189.1 °C.
For `O=C(NN1CCOCC1)c1nnc(-c2ccc(Cl)cc2Oc2ccccc2)o1` [6e, 5-(4-chloro-2-phenoxyphenyl)-N-morpholino-1,3,4-oxadiazole-2-carboxamide], the Ki [1] was 0.95 nM, the “Specific binding of [3H]flumazenil” value ([1]; log[L] -7.0) was 0.2900±0.0059 cpm and the “Specific binding of [3H]flumazenil” value ([1]; log[L] -8.0) was 0.3067±0.0090 cpm. The “Specific binding of [3H]flumazenil” value ([1]; log[L] -8.5) was 0.3600±0.0060 cpm, the “Specific binding of [3H]flumazenil” value ([1]; log[L] -9.0) was 0.5867±0.0090 cpm and the “Specific binding of [3H]flumazenil” value ([1]; log[L] -9.5) was 0.6033±0.0189 cpm. The “Specific binding of [3H]flumazenil” value ([1]; log[L] -10.0) was 0.6667±0.0148 cpm, the “Specific binding of [3H]flumazenil” value ([1]; log[L] -11.0) was 0.6967±0.0148 cpm and the IC50 [1] was 1.55 ± 0.1 nM. For the same molecule, the melting point was 159 to 161 °C.
With `O=C(NC1CCCCC1)c1nnc(-c2ccc(Cl)cc2Oc2ccccc2)o1` [6f, 5-(4-chloro-2-phenoxyphenyl)-N-cyclohexyl-1,3,4-oxadiazole-2-carboxamide] the Ki [1] was 1.53 nM, the “Specific binding of [3H]flumazenil” value ([1]; log[L] -7.0) was 0.2133±0.0272 cpm and the “Specific binding of [3H]flumazenil” value ([1]; log[L] -8.0) was 0.3533±0.0189 cpm. For the same molecule, the “Specific binding of [3H]flumazenil” value ([1]; log[L] -8.5) was 0.4000±0.0118 cpm, the “Specific binding of [3H]flumazenil” value ([1]; log[L] -9.0) was 0.4533±0.0148 cpm and the “Specific binding of [3H]flumazenil” value ([1]; log[L] -9.5) was 0.5500±0.0156 cpm. For the same molecule, the “Specific binding of [3H]flumazenil” value ([1]; log[L] -10.0) was 0.6133±0.0296 cpm, the “Specific binding of [3H]flumazenil” value ([1]; log[L] -11.0) was 0.5933±0.0207 cpm and the IC50 [1] was 2.51 ± 0.13 nM. It also gave a melting point of 132 to 133 °C.
